Experimental data reported in patent US20240391923A1, “METHIONINE ADENOSYLTRANSFERASE 2A INHIBITOR FOR TREATING MTAP DELETION-TYPE CANCER” (SUZHOU GENHOUSE BIO CO., LTD., priority 2022, published 2024).

Columns and labels:
PXR = molecular target: T1, PXR (Homo sapiens, UniProt O75469); assay: PXR activation test in stably transfected DPX2 cells; format: cell-based; conditions: for PXR activation fold (10 μM) / PXR activation fold (30 μM): DPX2 cells, 48 h; for activation activity on PXR at 30 μM (in words): summary of Table 10
T1 construct: host or cells: DPX2 cells
T1 sequence (O75469 1-434): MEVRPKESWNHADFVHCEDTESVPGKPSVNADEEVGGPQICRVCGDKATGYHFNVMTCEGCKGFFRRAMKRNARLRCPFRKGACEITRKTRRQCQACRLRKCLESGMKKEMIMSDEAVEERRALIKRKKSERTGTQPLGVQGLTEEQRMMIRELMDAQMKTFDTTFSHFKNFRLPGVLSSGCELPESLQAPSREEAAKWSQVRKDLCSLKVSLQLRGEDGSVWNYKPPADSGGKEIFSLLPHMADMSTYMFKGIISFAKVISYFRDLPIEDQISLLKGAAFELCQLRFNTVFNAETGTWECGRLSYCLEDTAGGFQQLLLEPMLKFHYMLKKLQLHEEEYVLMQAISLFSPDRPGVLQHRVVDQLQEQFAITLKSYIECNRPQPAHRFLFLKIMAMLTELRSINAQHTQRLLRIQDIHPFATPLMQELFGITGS
Experimental: In this example, the compound was tested for PXR activation.
100 μL of stably transfected DPX2 cells were seeded per well of a 96-well cell culture plate (4.5×10^5 cells/mL in Puracyp medium), followed by placing the 96-well plate in a 37° C. incubator. After 24 h, the 96-well plate was taken out from the incubator, the medium was replaced with 100 μL of the test compound (at a final concentration of 10 μM and 30 μM), positive control compound rifampicin (at a final concentration of 10 μM), and the DMSO treatment group (at a final concentration of 0.1%), and 3 replicate wells were set. The test plate was placed back into the incubator. After 24 h, the medium was replaced with the freshly prepared test compound and rifampicin solution, and the test plate was again placed back into the incubator. After the compound was treated for 48 h, the test plate was taken out from the incubator. The medium in the wells was discarded, the plate was washed twice with PBS, 50 μL of medium containing 1×CellTiter-Fluor™ Cell Viability Assay reagent was added, and the mixture was incubated at 37° C. for 30 min. The test plate was taken out and equilibrated to room temperature, and the fluorescence signal under the conditions of 400 nm excitation light/505 nm emission light was detected by a microplate reader.
Subsequently, 50 μL of medium containing ONE-Glo Assay reagent was added to each well, and the plate was shaken, mixed well, and incubated at room temperature for 5 min. Chemiluminescence was detected by a microplate reader. The data was analyzed to evaluate the PXR activation of the test compound.

[1] = Metabolic stability test in hepatocytes, human; format: in vitro ADME; conditions: hepatocytes (suspension), Table 5: metabolic stability in hepatocytes, up to 90 min, read-out: Metabolic half-life in human liver microsome (T½, min)
Experimental: This experimental example was used to test the metabolic stability of the compounds in hepatocytes.
A suspension of hepatocytes was prepared at 0.5×10^6/mL with a pre-heated medium, then 198 μL of the pre-heated cell suspension was added to a 96-well plate. To each well of the 96-well plate, 2 μL of the test compound was added so that the final concentration was 1 μM, and 2 replicate wells were set. For the T=0 min sample, the compound was mixed well with the cells for 1 min, then […] was immediately added to 125 μL of a stop solution (an acetonitrile solution containing 200 ng/mL tolbutamide and 200 ng/mL labetalol) under an ice bath and mixed well. At the same time, all the plates were placed in an incubator at 37° C. with 5% CO2, with the shaker set at 600 rpm. The sample was mixed well at 15, 30, 60, and 90 min of incubation, respectively, and 25 μL of the sample was added to 125 μL of a stop solution (an acetonitrile solution containing 200 ng/mL tolbutamide and 200 ng/mL labetalol) under an ice bath, mixed well, and shaken at 500 rpm for 10 min. Subsequently, the plate was centrifuged for 20 min at 3220×g at 4° C. […] Subsequently, analysis was carried out using LC-MS/MS, and intrinsic clearance (CLint) and half-life (T½) were calculated.

[2] = tested on: Human pancreatic cancer cells KP-4; assay: Mouse xenograft tumor pharmacodynamic model, KP-4; format: in vivo; conditions: KP-4 xenograft, 29 days of administration
Experimental: In this example, the in vivo efficacy of the compound in a mouse xenograft tumor model after intragastric (PO) administration was tested.
Human pancreatic cancer cells KP-4 were cultured in monolayer in vitro under the condition of 1640 medium containing […] and […] and streptomycin, and the culture was carried out at 37° C. with 5% CO2. The cells were digested with trypsin three times a week for passaging. When the saturation degree of the cells was 80-90%, the cells were collected, counted and inoculated. 0.1 mL (5×10^6 cells) of KP-4 cells were subcutaneously inoculated on the right back of each mouse. On day 34 after inoculation of the cells, the mean tumor volume reached 154 mm^3. The mice were randomly grouped for administration and intragastrically dosed once daily. Changes in body weight and tumor volume were recorded. After 29 days of administration, the experiment was ended. Tumor volume changes and mouse body weight changes were counted and analyzed. AG270 (CAS: 2201056-66-6) was the positive control compound.

Row | Structure (SMILES) | PXR activation fold (10 μM) (PXR) [fold] | PXR activation fold (30 μM) (PXR) [fold] | half-life at 1 μM [1] [min] | activation activity on PXR at 30 μM (in words) (PXR) | Tumor growth inhibition percentage (TGI) ([2]; PO 0.3 mg/kg once a day) | Tumor growth inhibition percentage (TGI) ([2]; PO 1 mg/kg once a day) | Tumor growth inhibition percentage (TGI) ([2]; PO 3 mg/kg once a day)
1 | O=c1c2n[nH]cc2c2ccc(C(F)(F)F)nc2n1-c1cccnc1 [Compound B178] | 7.47 | 34.49 | – | – | – | – | –
2 | Cn1cc2c(n1)c(=O)n(-c1cccc3[nH]ncc13)c1nc(C(F)(F)F)ccc21 [Compound B181] | 3.63 | 3.77 | > 217 | very weak | – | – | –
3 | Cn1cc2c(n1)c(=O)n(-c1cccc3[nH]ncc13)c1cc(Cl)c(F)cc21 [Compound B257] | 3.37 | 7.87 | – | very weak | once a day TGI = 66.25% | once a day TGI = 90.06% | once a day TGI = 97.08%

Now from value to compound, other results behind:

Row | PXR activation fold (10 μM) (PXR) [fold] | PXR activation fold (30 μM) (PXR) [fold] | half-life at 1 μM [1] [min] | activation activity on PXR at 30 μM (in words) (PXR) | Structure (SMILES) | Tumor growth inhibition percentage (TGI) ([2]; PO 0.3 mg/kg once a day) | Tumor growth inhibition percentage (TGI) ([2]; PO 1 mg/kg once a day) | Tumor growth inhibition percentage (TGI) ([2]; PO 3 mg/kg once a day)
4 | 7.06 | 21.71 | – | – | Cn1cc2c(n1)c(=O)n(-c1cccc3[nH]ncc13)c1cc(Cl)ccc21 [Compound B60] | – | – | –
5 | – | – | > 217 | – | Cn1cc2c(n1)c(=O)n(-c1cccnc1C1CC1)c1cc(Cl)c(F)cc21 [Compound B340] | – | – | –
